For 45 molecules, IC50 results are on record in US6967196B1, “Sulfonamide compounds and uses thereof” (Bristol-Myers Squibb Company, priority 1999, dated 2005).

This assay concerns amyloid β production in transfected H4 (human neuroglioma) cells stably expressing APP constructs. As to the kind of experiment: In vitro cell-based assay of inhibitors of amyloid β production (ELISA). As to conditions: Homo sapiens, 16 h, transfected H4 cells expressing APP, approximately 16 hours incubation, amyloid β in medium by ELISA; read-out: ACTIVITY (IC50, inhibition of amyloid β production). Summed up:
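H4 neuroglioma cells stably expressing APP constructs were dosed in fresh medium, screened initially at 10-100 μM, and incubated ~16 h. Medium Aβ was measured by ELISA with C-terminal-epitope capture and N-terminal detection antibodies, quantified from a standard curve, with dose-response testing of actives.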
In general terms: In an ELISA, binding on a coated surface is turned into a signal by an enzyme label.
As usually defined, the IC50 is the concentration that gives 50% inhibition. As to `C[C@H](CCCOC(=O)N(C)CCO)N(c1cc(Cl)ccc1CO)S(=O)(=O)c1ccc(Cl)cc1` [Example 1297], the half-inhibitory concentration (IC50) was not above 25 nM.
The result for `C[C@H](CCCOC(=O)N1CCCC1)N(c1cc(Cl)ccc1CO)S(=O)(=O)c1ccc(Cl)cc1` [Example 1298] reads not above 25 nM.
On to `CCCCNC(=O)[C@@H](C)N(c1cc(Cl)ccc1F)S(=O)(=O)c1ccc(Cl)cc1` [Example 1299], for which the IC50 lay within 100 to 500 nM.
On to `C[C@H](C(=O)NCc1ccco1)C(c1cc(Cl)ccc1F)S(=O)(=O)c1ccc(Cl)cc1` (stereo partly drawn) [Example 1300], for which the IC50 lay within 100 to 500 nM.
Regarding `C[C@H](C(=O)NCCN1CCOCC1)N(c1cc(Cl)ccc1F)S(=O)(=O)c1ccc(Cl)cc1` [Example 1301], the IC50 is more than 500 nM.
In the case of `C[C@H](C(=O)NCCC(c1ccccc1)c1ccccc1)N(c1cc(Cl)ccc1F)S(=O)(=O)c1ccc(Cl)cc1` [Example 1302], the IC50 was more than 500 nM.
With `C[C@H](C(=O)NCC1CC1)C(c1cc(Cl)ccc1F)S(=O)(=O)c1ccc(Cl)cc1` (stereo partly drawn) [Example 1303], the IC50 fell in the range of 100 to 500 nM.
Take `C[C@H](C(=O)NCCc1ccncc1)N(c1cc(Cl)ccc1F)S(=O)(=O)c1ccc(Cl)cc1` [Example 1304]: the IC50 was in the range of 100 to 500 nM.
Take `C[C@H](C(=O)NCCc1ccc(Cl)cc1Cl)N(c1cc(Cl)ccc1F)S(=O)(=O)c1ccc(Cl)cc1` [Example 1305]: the IC50 is more than 500 nM.
Consider `C[C@H](C(=O)NC[C@]12CC3C[C@H](C[C@H](C3)C1)C2)N(c1cc(Cl)ccc1F)S(=O)(=O)c1ccc(Cl)cc1` [Example 1306], for which the IC50 is more than 500 nM.
For `C[C@H](C(=O)NC1CCCC1)C(c1cc(Cl)ccc1F)S(=O)(=O)c1ccc(Cl)cc1` (stereo partly drawn) [Example 1307], the IC50 lay within 100 to 500 nM.
In the case of `C[C@H](C(=O)NC1CCCCC1)N(c1cc(Cl)ccc1F)S(=O)(=O)c1ccc(Cl)cc1` [Example 1308], the IC50 fell in the range of 100 to 500 nM.
Consider `C[C@H](C(=O)NC1CCCc2ccccc21)N(c1cc(Cl)ccc1F)S(=O)(=O)c1ccc(Cl)cc1` (stereo partly drawn) [Example 1309], for which the IC50 is more than 500 nM.
Consider `C[C@H](C(=O)NC1Cc2ccccc2C1)N(c1cc(Cl)ccc1F)S(=O)(=O)c1ccc(Cl)cc1` [Example 1310], for which the IC50 was more than 500 nM.
For the molecule `C[C@H](C(=O)Nc1ccc2[nH]ncc2c1)N(c1cc(Cl)ccc1F)S(=O)(=O)c1ccc(Cl)cc1` [Example 1311], the IC50 is more than 500 nM.
The same measure for `CCN(CC)CCCC(C)NC(=O)[C@@H](C)N(c1cc(Cl)ccc1F)S(=O)(=O)c1ccc(Cl)cc1` (stereo partly drawn) [Example 1312]: more than 500 nM.
In the case of `C[C@H](C(=O)NCc1ccncc1)N(c1cc(Cl)ccc1F)S(=O)(=O)c1ccc(Cl)cc1` [Example 1313], the IC50 lay in the range of 100 to 500 nM.
Consider `C[C@H](C(=O)NCCc1c(Cl)cccc1Cl)N(c1cc(Cl)ccc1F)S(=O)(=O)c1ccc(Cl)cc1` [Example 1314], for which the IC50 was 100 to 500 nM.
The same measure for `CCN(CCNC(=O)[C@@H](C)N(c1cc(Cl)ccc1F)S(=O)(=O)c1ccc(Cl)cc1)c1cccc(C)c1` [Example 1315]: more than 500 nM; for `C[C@H](C(=O)NC1CCC(C(C)(C)C)CC1)N(c1cc(Cl)ccc1F)S(=O)(=O)c1ccc(Cl)cc1` (stereo partly drawn) [Example 1316]: more than 500 nM; for `C[C@H](C(=O)NCCc1cccs1)N(c1cc(Cl)ccc1F)S(=O)(=O)c1ccc(Cl)cc1` [Example 1317]: more than 500 nM.
Consider `C[C@H](C(=O)NCCOc1ccccc1)N(c1cc(Cl)ccc1F)S(=O)(=O)c1ccc(Cl)cc1` [Example 1318], for which the IC50 was more than 500 nM.
`C[C@H](C(=O)NCc1ccc2c(c1)OCO2)N(c1cc(Cl)ccc1F)S(=O)(=O)c1ccc(Cl)cc1` [Example 1319]: the 50% inhibitory concentration (IC50) was more than 500 nM.
In the case of `CCOCCCNC(=O)[C@@H](C)N(c1cc(Cl)ccc1F)S(=O)(=O)c1ccc(Cl)cc1` [Example 1320], the IC50 was 100 to 500 nM.
Consider `C[C@H](C(=O)NCC1CCCO1)N(c1cc(Cl)ccc1F)S(=O)(=O)c1ccc(Cl)cc1` (stereo partly drawn) [Example 1321], for which the IC50 lay in the range of 100 to 500 nM.
The same measure for `C[C@H](C(=O)NCCCN1CCOCC1)N(c1cc(Cl)ccc1F)S(=O)(=O)c1ccc(Cl)cc1` [Example 1322]: more than 500 nM; for `C[C@H](C(=O)NC[C@@H]1CC[C@H]2C[C@@H]1C2(C)C)N(c1cc(Cl)ccc1F)S(=O)(=O)c1ccc(Cl)cc1` [Example 1323]: more than 500 nM.
Regarding `C[C@H](C(=O)NCCCCc1ccccc1)N(c1cc(Cl)ccc1F)S(=O)(=O)c1ccc(Cl)cc1` [Example 1324], the IC50 was more than 500 nM.
With `Cc1ccc(CCNC(=O)[C@@H](C)N(c2cc(Cl)ccc2F)S(=O)(=O)c2ccc(Cl)cc2)cc1` [Example 1325], the IC50 is more than 500 nM.
Consider `C[C@H](C(=O)NCCc1ccc(F)cc1)N(c1cc(Cl)ccc1F)S(=O)(=O)c1ccc(Cl)cc1` [Example 1326], for which the IC50 is more than 500 nM.
The same measure for `C[C@H](C(=O)NCc1c(F)cccc1F)N(c1cc(Cl)ccc1F)S(=O)(=O)c1ccc(Cl)cc1` [Example 1327]: more than 500 nM.
Regarding `C[C@H](C(=O)NCC(C)(C)CO)N(c1cc(Cl)ccc1F)S(=O)(=O)c1ccc(Cl)cc1` [Example 1328], the IC50 lay in the range of 100 to 500 nM.
As to `C[C@H](C(=O)N(CCN)c1ccccc1)N(c1cc(Cl)ccc1F)S(=O)(=O)c1ccc(Cl)cc1` [Example 1329], the IC50 is more than 500 nM.
Regarding `C[C@H](C(=O)NCc1cccc(I)c1)N(c1cc(Cl)ccc1F)S(=O)(=O)c1ccc(Cl)cc1` [Example 1330], the IC50 was more than 500 nM.
For `C[C@H](C(=O)NCCc1ccc(O)cc1)N(c1cc(Cl)ccc1F)S(=O)(=O)c1ccc(Cl)cc1` [Example 1331], the IC50 is more than 500 nM.
The result for `C[C@H](C(=O)NCc1cccnc1)N(c1cc(Cl)ccc1F)S(=O)(=O)c1ccc(Cl)cc1` [Example 1332] reads 100 to 500 nM; that for `CCCCN(CCCC)CCCNC(=O)[C@@H](C)N(c1cc(Cl)ccc1F)S(=O)(=O)c1ccc(Cl)cc1` [Example 1333], more than 500 nM.
On to `C[C@H](C(=O)NCc1ccc(F)c(F)c1)N(c1cc(Cl)ccc1F)S(=O)(=O)c1ccc(Cl)cc1` [Example 1334], for which the IC50 is more than 500 nM.
As for `CC(CCCC(C)(C)O)NC(=O)[C@@H](C)N(c1cc(Cl)ccc1F)S(=O)(=O)c1ccc(Cl)cc1` (stereo partly drawn) [Example 1335], the IC50 is more than 500 nM.
As for `C[C@H](C(=O)Nc1cc(Cl)ccc1O)N(c1cc(Cl)ccc1F)S(=O)(=O)c1ccc(Cl)cc1` [Example 1336], the IC50 is more than 500 nM.
As to `CCCCCCCCCCCCCCNC(=O)[C@@H](C)N(c1cc(Cl)ccc1F)S(=O)(=O)c1ccc(Cl)cc1` [Example 1337], the IC50 is more than 500 nM.
For the molecule `C[C@H](C(=O)N[C@H]1CC[C@H](O)CC1)N(c1cc(Cl)ccc1F)S(=O)(=O)c1ccc(Cl)cc1` [Example 1338], the IC50 fell in the range of 100 to 500 nM.
Turning to `C[C@H](C(=O)NCCc1ccccn1)N(c1cc(Cl)ccc1F)S(=O)(=O)c1ccc(Cl)cc1` [Example 1339], the IC50 lay within 100 to 500 nM.
On to `CC1CCCCN1CCCNC(=O)[C@@H](C)N(c1cc(Cl)ccc1F)S(=O)(=O)c1ccc(Cl)cc1` (stereo partly drawn) [Example 1340], for which the IC50 was more than 500 nM.
As for `C[C@H](C(=O)NCc1ccccn1)N(c1cc(Cl)ccc1F)S(=O)(=O)c1ccc(Cl)cc1` [Example 1341], the IC50 lay in the range of 100 to 500 nM.
